According to BigSolDB 2.1:

CC(C)[C@H](N)C(=O)O
solubility (mole fraction)
Conditions	283.15 K	288.15 K	293.15 K	298.15 K	303.15 K	308.15 K	313.15 K	318.15 K	323.15 K	328.15 K
in 1,4-dioxane	–	6.7e-05	8.7e-05	0.000121	0.000169	0.000223	0.000281	0.000346	0.00041	0.000486
in acetone	3.1e-05	4.1e-05	5.6e-05	7.5e-05	0.0001	0.000132	0.000171	0.000216	0.000256	–
in acetonitrile	2.4e-05	3.3e-05	4.3e-05	5.6e-05	6.8e-05	8.2e-05	9.9e-05	0.000116	0.000136	–
in ethanol	0.000254	0.00026	0.000272	0.000286	0.000303	0.00032	0.000338	0.000357	0.00038	–
in ethyl acetate	3.1e-05	3.7e-05	4.6e-05	5.7e-05	7.1e-05	8.4e-05	0.0001	0.000119	0.000136	–
in isobutanol	5e-05	6.1e-05	7.8e-05	9.9e-05	0.000123	0.000151	0.000185	0.000218	0.000258	–
in isopropanol	1.6e-05	1.8e-05	2.5e-05	3.2e-05	4.2e-05	5.6e-05	7e-05	9e-05	0.00011	–
in methanol	0.000585	0.000601	0.000624	0.000652	0.000684	0.000717	0.000754	0.000792	0.000834	–
in methyl acetate	3e-05	3.2e-05	3.4e-05	3.6e-05	4.2e-05	5.1e-05	6.7e-05	8.8e-05	0.000115	–
in n-butanol	2.4e-05	3.1e-05	4.7e-05	6.9e-05	9.1e-05	0.000115	0.000139	0.00017	0.000203	–
in n-propanol	1.5e-05	1.9e-05	2.3e-05	3e-05	3.7e-05	4.6e-05	5.5e-05	6.4e-05	7.7e-05	–
in water	0.00915	0.00921	0.00937	0.00954	0.00976	0.00998	0.0102	0.0105	0.0108	–
